ChEMBL document CHEMBL4616647, “PTP1B-Inhibiting Branched-Chain Fatty Acid Dimers from Eremophila oppositifolia subsp. angustifolia Identified by High-Resolution PTP1B Inhibition Profiling and HPLC-PDA-HRMS-SPE-NMR Analysis” (J Nat Prod, 2020)
The source made the active and inactive calls. The calls are words filed in the database; no cut-off is given here.

Tests used:
[1] = target: T1, Tyrosine-protein phosphatase non-receptor type 1 (Homo sapiens, UniProt P18031); assay: Inhibition of PTP1B (unknown origin) using pNPP as substrate incubated for 30 mins by photometric method
T1 sequence (P18031 whole entry): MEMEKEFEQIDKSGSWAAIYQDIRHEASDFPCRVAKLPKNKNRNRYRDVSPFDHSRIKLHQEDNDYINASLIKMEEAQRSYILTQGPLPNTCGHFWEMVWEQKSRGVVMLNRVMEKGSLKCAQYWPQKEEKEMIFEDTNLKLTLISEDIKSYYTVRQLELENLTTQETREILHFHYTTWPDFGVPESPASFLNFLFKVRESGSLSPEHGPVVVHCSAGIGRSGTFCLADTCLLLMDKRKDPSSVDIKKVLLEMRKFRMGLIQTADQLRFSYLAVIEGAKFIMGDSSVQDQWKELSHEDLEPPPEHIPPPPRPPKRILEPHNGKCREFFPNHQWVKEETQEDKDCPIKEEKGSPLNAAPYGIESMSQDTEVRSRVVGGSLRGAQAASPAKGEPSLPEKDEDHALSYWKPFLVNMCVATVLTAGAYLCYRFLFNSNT

[2] = target: T1, Tyrosine-protein phosphatase non-receptor type 1; assay: Inhibition of human recombinant PTP1B (1 to 322 residues) expressed in Escherichia coli using pNPP as substrate preincubated for 10 mins followed by substrate addition and measured after every 30 secs for 10 mins by photometric method
[3] = target: T2, Tyrosine-protein phosphatase non-receptor type 1 (Homo sapiens) (UniProt P18031); assay: Inhibition of human recombinant PTP1B (1 to 322 residues) expressed in Escherichia coli by HPLC-PDA-HRMS-SPE-NMR analysis
T2 sequence (whole entry): T1 sequence (P18031 whole entry)

In the case of `CCCCCCCCCCCCCCCCCCCC(=O)O` [ARACHIDIC ACID], the IC50 [1] is reported as 1.6 µM.

For `CCCCCCCCCCCCCCCC(=O)C1=C(O)[C@@H](CO)OC1=O`, the IC50 [2] was 7.3 µM.

`CCCCCCC/C=C/C(=C\C=C\C(=O)O)COC(C)=O` was tested, and the IC50 [2] was 38 µM.

Work on `CCCCCCCC/C=C\CCCCCCCC(=O)O` [OLEIC ACID] yielded an IC50 [1] of 6.2 µM.

Work on `CCCCCCCCCCCCCCCC(=O)O` [PALMITIC ACID] yielded an IC50 [1] of 8.8 µM.

`CCCCCCC/C=C/C(=C/C=C/C(=O)O)COC(C)=O` gave an IC50 [2] of 484 µM.

`CCCCCCC[C@@H]1[C@@H](/C(=C/C=C/C(=O)O)CO)[C@@H](/C=C/C(=O)O)C(COC(C)=O)=C[C@H]1CCCCCCC` was tested, and the inhibition [3] was “Active” and the IC50 [2] was 30 µM.

`CCCCCCCCCCCCCCCCCC(=O)O` [STEARIC ACID] was tested, and the IC50 [1] was 2.3 µM.

`CCCCCCC[C@H]1[C@H](/C(=C/C=C/C(=O)O)CO)[C@@H](/C=C/C(=O)O)C(COC(C)=O)=C[C@H]1CCCCCCC` was tested, and the inhibition [3] was “Active” and the IC50 [2] was 2.4 µM.

`CCCCCCC/C=C/C(C)=C/C=C/C(=O)O` gave an IC50 [2] of 73 µM.

`CCCCCCC/C=C/C(=C/C=C/C(=O)O)CO` gave an IC50 [2] of 163 µM.

`CCCCCC/C=C\CCCCCCCC(=O)O` [PALMITOLEIC ACID] was tested, and the IC50 [1] was 6.4 µM.

Compound `CCCCCCCC/C=C\CCCCCCCCCC(=O)O` has an IC50 [1] of 1.4 µM.

`C=C(/C=C/CCCCCCC)CCCC(=O)O` gave an IC50 [2] of 144 µM.

`CCCCCCC[C@@H]1[C@@H](/C(=C/C=C/C(=O)O)COC(C)=O)[C@@H](/C=C/C(=O)O)C(COC(C)=O)=C[C@H]1CCCCCCC` was tested, and the inhibition [3] was “Active” and the IC50 [2] was 12 µM.

`CCCCCCC/C=C/C(=C/[C@H]1[C@H](C(=O)O)[C@H](CCCCCCC)C=C(COC(C)=O)[C@@H]1/C=C/C(=O)O)COC(=O)O` was tested, and the inhibition [3] was “Active” and the IC50 [2] was 66 µM.

`CCCCCCC[C@H]1[C@H](/C(=C/C=C/C(=O)O)COC(C)=O)[C@@H](/C=C/C(=O)O)C(COC(C)=O)=C[C@H]1CCCCCCC` was tested, and the inhibition [3] was “Active” and the IC50 [2] was 12 µM.

With `CCCCCCC[C@@H]1[C@@H](/C(=C/C=C/C(=O)O)COC(C)=O)[C@@H](/C=C/C(=O)O)C(CO)=C[C@H]1CCCCCCC` the inhibition [3] was “Active” and the IC50 [2] was 24 µM.
